In ChEMBL document CHEMBL3588806, “Generation of Broad-Spectrum Antifungal Drug Candidates from the Natural Product Compound Aureobasidin A” (ACS Med Chem Lett, 2015):
≈ marks a conversion by molar mass, not a printed value. Starred links: 1 amine or outer side, 2 acyl side, 3 side chain; linkers in the order of their positions; H or OH if unused. Non-standard residues stand in square brackets, D forms with d. Residues, ends and D or L forms follow the SMILES beside them. NMePhe(3-(3-pyridyl)) = CN[C@@H](Cc1cccc(-c2cccnc2)c1)C(=O)O; X1 = CC[C@@H](C)[C@@H](O[*:1])C(=O)[*:2]; Hmp(2R,3S) = CC[C@H](C)[C@@H](O)C(=O)O; NMeVal(β-OH) = CN[C@H](C(=O)O)C(C)(C)O; NMeF = CN[C@@H](Cc1ccccc1)C(=O)O; aIle = CC[C@@H](C)[C@H](N)C(=O)O; NMeV = CN[C@H](C(=O)O)C(C)C

Tests used:
[1] = system: Sporothrix schenckii; test: Antifungal activity against Sporothrix schenckii ATCC 14284 by broth dilution method; type: functional
[2] = system: Trichophyton mentagrophytes; test: Antifungal activity against Trichophyton mentagrophytes ATCC MYA-4439 by broth dilution method; type: functional
[3] = system: Trichophyton mentagrophytes; test: Antifungal activity against Trichophyton mentagrophytes ATCC 28185 by broth dilution method; type: functional
[4] = system: Trichophyton rubrum; test: Antifungal activity against Trichophyton rubrum ATCC MYA-4438 by broth dilution method; type: functional
[5] = system: Candida albicans; test: Antifungal activity against Candida albicans ATCC 90028 by broth dilution method; type: functional
[6] = system: Candida albicans; test: Antifungal activity against Candida albicans ATCC 90029 by broth dilution method; type: functional
[7] = system: Candida albicans; test: Antifungal activity against Candida albicans ATCC 10231 by broth dilution method; type: functional
[8] = system: Candida albicans; test: Antifungal activity against Candida albicans ATCC 204276 by broth dilution method; type: functional
[9] = system: Candida albicans; test: Antifungal activity against Candida albicans ATCC MYA-2732 by broth dilution method; type: functional
[10] = system: Candida albicans; test: Antifungal activity against Candida albicans ATCC 24433 by broth dilution method; type: functional
[11] = system: Meyerozyma guilliermondii; test: Antifungal activity against Candida guilliermondii ATCC 34134 by broth dilution method; type: functional
[12] = system: Pichia kudriavzevii; test: Antifungal activity against Candida krusei ATCC 14243 by broth dilution method; type: functional
[13] = system: Clavispora lusitaniae; test: Antifungal activity against Candida lusitaniae ATCC 66035 by broth dilution method; type: functional
[14] = system: Candida parapsilosis; test: Antifungal activity against Candida parapsilosis ATCC 90018 by broth dilution method; type: functional; settings: Lodderomyces parapsilosis
[15] = system: Candida parapsilosis; test: Antifungal activity against Candida parapsilosis ATCC 22019 by broth dilution method; type: functional; settings: Lodderomyces parapsilosis
[16] = system: Nakaseomyces glabratus; test: Antifungal activity against Candida glabrata ATCC 90030 by broth dilution method; type: functional
[17] = system: Candida tropicalis; test: Antifungal activity against Candida tropicalis ATCC 750 by broth dilution method; type: functional
[18] = system: Candida tropicalis; test: Antifungal activity against Candida tropicalis ATCC 90874 by broth dilution method; type: functional
[19] = system: Cryptococcus neoformans; test: Antifungal activity against Cryptococcus neoformans ATCC […] by broth dilution method; type: functional
[20] = system: Pichia kudriavzevii; test: Antifungal activity against Issatchenkia orientalis ATCC 6258 by broth dilution method; type: functional
[21] = system: Saccharomyces cerevisiae; test: Antifungal activity against Saccharomyces cerevisiae ATCC 7754 by broth dilution method; type: functional
[22] = Ratio of MIC for Aspergillus fumigatus to MIC for Candida albicans; type: functional
[23] = system: Candida albicans; test: Antifungal activity against Candida albicans by broth dilution method; type: functional
[24] = system: Aspergillus fumigatus; test: Antifungal activity against Aspergillus fumigatus by broth dilution method; type: functional
[25] = system: Aspergillus fumigatus; test: Antifungal activity against Aspergillus fumigatus ATCC 20435 by broth dilution method; type: functional
[26] = system: Aspergillus fumigatus; test: Antifungal activity against Aspergillus fumigatus ATCC MYA-32626 by broth dilution method; type: functional
[27] = system: Aspergillus flavus; test: Antifungal activity against Aspergillus flavus ATCC 204304 by broth dilution method; type: functional
[28] = system: Aspergillus flavus; test: Antifungal activity against Aspergillus flavus ATCC 22546 by broth dilution method; type: functional
[29] = system: Aspergillus flavus; test: Antifungal activity against Aspergillus flavus ATCC 64025 by broth dilution method; type: functional
[30] = system: Aspergillus candidus; test: Antifungal activity against Aspergillus candidus ATCC 13686 by broth dilution method; type: functional
[31] = system: Aspergillus clavatus; test: Antifungal activity against Aspergillus clavatus ATCC 10058 by broth dilution method; type: functional
[32] = system: Aspergillus niger; test: Antifungal activity against Aspergillus niger ATCC 16888 by broth dilution method; type: functional
[33] = system: Aspergillus niger; test: Antifungal activity against Aspergillus niger ATCC 64028 by broth dilution method; type: functional
[34] = system: Aspergillus ochraceus; test: Antifungal activity against Aspergillus ochraceus ATCC 96919 by broth dilution method; type: functional
[35] = system: Aspergillus nidulans; test: Antifungal activity against Emericella nidulans ATCC 96921 by broth dilution method; type: functional
[36] = system: Fusarium oxysporum; test: Antifungal activity against Fusarium oxysporum ATCC 48112 by broth dilution method; type: functional
[37] = system: Rhizopus arrhizus; test: Antifungal activity against Rhizopus oryzae ATCC 11886 by broth dilution method; type: functional
[38] = Time dependent inhibition of Candida albicans ATCC 38247 membrane inositol phosphorylceramide synthase using ceramide as substrate

| SMILES | MIC [1] | MIC [2] | MIC [3] | MIC [4] | MIC [5] | MIC [6] | MIC [7] | MIC [8] | MIC [9] | MIC [10] | MIC [11] | MIC [12] | MIC [13] | MIC [14] | MIC [15] | MIC [16] | MIC [17] | MIC [18] | MIC [19] | MIC [20] | also measured |
| --- | --- | --- | --- | --- | --- | --- | --- | --- | --- | --- | --- | --- | --- | --- | --- | --- | --- | --- | --- | --- | --- |
| CC[C@H](C)[C@@H]1NC(=O)[C@@H]2CCCN2C(=O)[C@H](Cc2cccc(-c3cccnc3)c2)N(C)C(=O)[C@H](Cc2ccccc2)NC(=O)[C@H](C(C)C)N(C)C(=O)[C@@H]([C@@H](C)CC)OC(=O)[C@H](C(C)(C)O)N(C)C(=O)[C@H](CC(C)C)NC(=O)[C@H](C(C)C)N(C)C1=O (cyclo(F[NMePhe(3-(3-pyridyl))]PI[NMeV]L[NMeVal(β-OH)][Hmp(2R,3S)][NMeV])) | > 64 µg/mL | 0.5 µg/mL (≈ 0.424 µM) | 1 µg/mL (≈ 0.849 µM) | 2 µg/mL (≈ 1.7 µM) | 0.015 µg/mL (≈ 0.0127 µM) | 0.5 µg/mL (≈ 0.424 µM) | 1 µg/mL (≈ 0.849 µM) | 0.03 µg/mL (≈ 0.0255 µM) | 0.03 µg/mL (≈ 0.0255 µM) | 0.125 µg/mL (≈ 0.106 µM) | 0.03 µg/mL (≈ 0.0255 µM) | 0.06 µg/mL (≈ 0.0509 µM) | 0.125 µg/mL (≈ 0.106 µM) | 0.03 µg/mL (≈ 0.0255 µM) | 0.06 µg/mL (≈ 0.0509 µM) | 0.03 µg/mL (≈ 0.0255 µM) | 0.03 µg/mL (≈ 0.0255 µM) | 0.015 µg/mL (≈ 0.0127 µM) | 0.03 µg/mL (≈ 0.0255 µM) | 0.06 µg/mL (≈ 0.0509 µM) | MIC [21]: 0.03 µg/mL (≈ 0.0255 µM); Ratio [22]: > 10; MIC [23]: < 0.05 µg/mL; MIC [24]: < 0.94 µg/mL; MIC [25]: 1 µg/mL (≈ 0.849 µM); MIC [26]: 2 µg/mL (≈ 1.7 µM); MIC [27]: 1 µg/mL (≈ 0.849 µM); MIC [28]: 2 µg/mL (≈ 1.7 µM); MIC [29]: 1 µg/mL (≈ 0.849 µM); MIC [30]: 0.008 µg/mL (≈ 0.00679 µM); MIC [31]: 0.03 µg/mL (≈ 0.0255 µM); MIC [32]: 0.125 µg/mL (≈ 0.106 µM); MIC [33]: 0.03 µg/mL (≈ 0.0255 µM); MIC [34]: 0.25 µg/mL (≈ 0.212 µM); MIC [35]: 0.125 µg/mL (≈ 0.106 µM); MIC [36]: > 64 µg/mL; MIC [37]: > 64 µg/mL |
| CC[C@@H](C)[C@@H]1NC(=O)[C@@H]2CCCN2C(=O)[C@H](Cc2ccccc2)N(C)C(=O)[C@H](Cc2ccccc2)NC(=O)[C@H](C(C)C)N(C)C(=O)[C@@H]([C@H](C)CC)OC(=O)[C@H](C(C)(C)O)N(C)C(=O)[C@H](CC(C)C)NC(=O)[C@H](C(C)C)N(C)C1=O [AUREOBASIDIN A] (cyclo(F[NMeF]P[aIle][NMeV]L[NMeVal(β-OH)][X1][NMeV])) |  |  |  |  |  |  |  |  |  |  |  |  |  |  |  |  |  |  |  |  | Ki [38]: 200 pM; MIC [23]: < 0.05 µg/mL; MIC [24]: > 25 µg/mL |
| C[C@@H]1[C@H](O)[C@@H](C)/C=C/C=C/C=C/C=C/C=C/C=C/C=C/[C@H](O[C@@H]2O[C@H](C)[C@@H](O)[C@H](N)[C@@H]2O)C[C@@H]2O[C@](O)(C[C@@H](O)C[C@@H](O)[C@H](O)CC[C@@H](O)C[C@@H](O)CC(=O)O[C@H]1C)C[C@H](O)[C@H]2C(=O)O [AMPHOTERICIN B] | 0.5 µg/mL (≈ 0.541 µM) | 0.06 µg/mL (≈ 0.0649 µM) | 0.06 µg/mL (≈ 0.0649 µM) | 0.03 µg/mL (≈ 0.0325 µM) | 0.03 µg/mL (≈ 0.0325 µM) | 0.03 µg/mL (≈ 0.0325 µM) | 0.03 µg/mL (≈ 0.0325 µM) | 0.06 µg/mL (≈ 0.0649 µM) | 0.06 µg/mL (≈ 0.0649 µM) | 0.03 µg/mL (≈ 0.0325 µM) | 0.008 µg/mL (≈ 0.00866 µM) | 0.125 µg/mL (≈ 0.135 µM) | 0.015 µg/mL (≈ 0.0162 µM) | 0.06 µg/mL (≈ 0.0649 µM) | 0.125 µg/mL (≈ 0.135 µM) | 0.03 µg/mL (≈ 0.0325 µM) | 0.06 µg/mL (≈ 0.0649 µM) | 0.06 µg/mL (≈ 0.0649 µM) | 0.015 µg/mL (≈ 0.0162 µM) | 0.125 µg/mL (≈ 0.135 µM) | MIC [21]: 0.06 µg/mL (≈ 0.0649 µM); MIC [25]: 0.25 µg/mL (≈ 0.271 µM); MIC [26]: 0.25 µg/mL (≈ 0.271 µM); MIC [27]: 0.25 µg/mL (≈ 0.271 µM); MIC [28]: 0.25 µg/mL (≈ 0.271 µM); MIC [29]: 0.5 µg/mL (≈ 0.541 µM); MIC [30]: 0.03 µg/mL (≈ 0.0325 µM); MIC [31]: 0.004 µg/mL (≈ 0.00433 µM); MIC [32]: 0.03 µg/mL (≈ 0.0325 µM); MIC [33]: 0.015 µg/mL (≈ 0.0162 µM); MIC [34]: 0.25 µg/mL (≈ 0.271 µM); MIC [35]: 1 µg/mL (≈ 1.08 µM); MIC [36]: 1 µg/mL (≈ 1.08 µM); MIC [37]: 0.03 µg/mL (≈ 0.0325 µM) |
